One data set deals with HUVEC monolayers. In words: Inhibition of macromolecule (HRP) permeability of thrombin-stimulated HUVEC monolayers. The format is cell-based, human. The following applies: Homo sapiens, 1 h; HUVEC on Transwells, 1 μM RP73401, 10 μM Motapizone, 1 mM SNP or 100 nM ANP, 1 U/ml thrombin, HRP passage after 60 min; read-out: Inhibition of SNP- or ANP-induced permeability, −log IC50 [mol/l] (converted). How it is done:
Method to Assess Inhibition of Macromolecule Permeability of HUVEC Monolayers
The procedure to measure macromolecule permeability of endothelial cell monolayers followed the method described by Langeler & van Hinsbergh (1988) with modifications. Human umbilical vein endothelial cells were isolated from umbilical cords according to standard procedures (Jaffe et al. 1973) and cultured in endothelial cell basal medium (EBM) supplemented with 2% FCS, 0.5 ng/ml VEGF, 10 ng/ml bFGF, 5 ng/ml EGF, 20 ng/ml Long R3 IGF-1, 0.2 μg/ml hydrocortisone, 1 μg/ml ascorbic acid, 22.5 μg/ml heparin, 50 μg/ml gentamicin, 50 ng/ml amphotericin B (EGM2 purchased from Promocell GmbH, Heidelberg, Germany). At confluency, cells were trypsinized and replated at 73000 cells per well on 3 μm polycarbonate filter Transwell inserts (Costar GmbH, Bodenheim, Germany) precoated with 10 μg cm^2−1 Fibronectin (Sigma, Taufkirchen, Germany). HUVECs were cultured in EGM2 (100 μl in the upper wells and 600 μl in the lower wells) over four days prior the experiments and medium was changed every other day. At the day of the experiment culture medium was replaced by M199 with 1% human serum albumin. Endothelial cells were preincubated with cyclic nucleotide modifiers (the selective PDE3 inhibitor motapizone, the selective PDE4 inhibitor RP73401, the cGMP generators ANP or SNP and PDE2 inhibitors) for 15 min. HUVECs were then stimulated with Thrombin (1 U ml^−1) (Sigma, Taufkichen, Germany) and horsh radish peroxidase (5 μg/ml) (Sigma, Taufkirchen, Germany) as the macromolecule marker protein was added to the upper wells. Following 1 h incubation time Transwells were removed and the activity of horsh radish peroxidase that penetrated the endothelial cell monolayer was measured in the lower wells with the 3,3′,5,5′-tetramethylbenzidine liquid substrate system from Sigma (Taufkirchen, Germany).
In parallel, compounds according to the invention can inhibit Thrombin-induced permeability of HUVEC monolayers for horsh radish peroxidase (HRP) as a macromolecule marker. […] The concentration-dependent inhibition of HRP permeability at different concentrations was assessed from the percent inhibition in the presence and absence of the PDE2 inhibitors and in the presence of 1 μM RP73401, 10 μM Motapizone and 100 nM ANP.
Inhibition of SNP- or ANP-Induced Permeability of HUVEC Monolayers:
HUVEC cells on 3 μm polycarbonate filters (Transwells) were preincubated with 1 μM RP73401 (to block PDE4) and 10 μM Motapizone (to block PDE3), 1 mM SNP or 100 nM ANP and test sample over 15 min and then stimulated with 1 U/ml thrombin. HRP passage into the lower wells was assessed after 60 min.

What is called melting point is the temperature of the solid-liquid transition. For `COc1ccc(-c2nnc3c4ccccc4c(Nc4cccc(NS(=O)(=O)c5cccc(OC)c5)c4)nn23)cc1` [Compound 14, 3-Methoxy-N-{3-[3-(4-methoxy-phenyl)-[1,2,4]triazolo[3,4-a]phthalazin-6-ylamino]-phenyl}-benzenesulfonamide], the melting point lay in the range of 328 to 332 °C. In addition, in the data set with HUVEC monolayers, the IC50 was 0.501 to 126 nM.

For the molecule `COc1ccc(-c2nnc3c4ccccc4c(Nc4ccc(NS(C)(=O)=O)cc4)nn23)cc1` [Compound 3, N-{4-[3-(4-Methoxy-phenyl)-[1,2,4]triazolo[3,4-a]phthalazin-6-ylamino]-phenyl}-methanesulfonamide], the melting point lay in the range of 318 to 320 °C. Also, the IC50 in the data set with HUVEC monolayers is 0.501 to 126 nM.

In turn, `CN(C)S(=O)(=O)Nc1cccc(Nc2nn3c(-c4ccccc4F)nnc3c3ccccc23)c1` [Compound 31] registered a melting point of 252 to 256 °C. Moreover, the IC50 in the data set on HUVEC monolayers was 0.501 to 126 nM.

`COc1ccc(-c2nnc3c4ccccc4c(Nc4ccc(NS(=O)(=O)c5cccs5)cc4)nn23)cc1` [Compound 1, Thiophene-2-sulfonic acid {4-[3-(4-methoxy-phenyl)-[1,2,4]triazolo[3,4-a]phthalazin-6-ylamino]-phenyl}-amide]: the melting point lay within 351 to 353 °C. Also, the IC50 with HUVEC monolayers is 0.501 to 126 nM.

For `COc1ccc(-c2nnc3c4ccccc4c(Nc4cccc(NS(=O)(=O)c5ccc(OC)cc5)c4)nn23)cc1` [Compound 10, 4-Methoxy-N-{3-[3-(4-methoxy-phenyl)-[1,2,4]triazolo[3,4-a]phthalazin-6-ylamino]-phenyl}-benzenesulfonamide], the melting point was 328 to 331 °C (dec.). For the same molecule, the IC50 in the data set with HUVEC monolayers is 0.501 to 126 nM.

As to `COc1ccc(-c2nnc3c4ccccc4c(Nc4ccc(NS(=O)(=O)N5CCOCC5)cc4)nn23)cc1` [Compound 6, Morpholine-4-sulfonic acid {4-[3-(4-methoxy-phenyl)-[1,2,4]triazolo[3,4-a]phthalazin-6-ylamino]-phenyl}-amide], the melting point was 266 to 270 °C. In the data set on HUVEC monolayers, the IC50 is 0.501 to 126 nM.

In turn, `COc1ccc(-c2nnc3c4ccccc4c(Nc4ccc(NS(=O)(=O)Cc5ccccc5)cc4)nn23)cc1` [Compound 4, N-{4-[3-(4-Methoxy-phenyl)-[1,2,4]triazolo[3,4-a]phthalazin-6-ylamino]-phenyl}-1-phenyl-methanesulfonamide] came in with a melting point of 304 to 306 °C. In addition, the IC50 in the data set with HUVEC monolayers was 0.501 to 126 nM.

`COc1ccc(-c2nnc3c4ccccc4c(Nc4cccc(S(=O)(=O)N5CCCCC5)c4)nn23)cc1` [Compound 30, [3-(4-Methoxy-phenyl)-[1,2,4]triazolo[3,4-a]phthalazin-6-yl]-[3-(piperidine-1-sulfonyl)-phenyl]-amine] registered a melting point of 275 to 280 °C. Further, the IC50 in the data set on HUVEC monolayers was 0.501 to 126 nM.

`COc1ccc(-c2nnc3c4ccccc4c(Nc4cccc(S(=O)(=O)N5CCCC5)c4)nn23)cc1` [Compound 29, [3-(4-Methoxy-phenyl)-[1,2,4]triazolo[3,4-a]phthalazin-6-yl]-[3-(pyrrolidine-1-sulfonyl)-phenyl]-amine] yielded a melting point of 292 to 295 °C. For the same molecule, the IC50 with HUVEC monolayers was 0.501 to 126 nM.

For `COc1ccc(-c2nnc3c4ccccc4c(Nc4cccc(NS(=O)(=O)c5ccc(C)cc5)c4)nn23)cc1` [Compound 9, N-{3-[3-(4-Methoxy-phenyl)-[1,2,4]triazolo[3,4-a]phthalazin-6-ylamino]-phenyl}-4-methyl-benzenesulfonamide], the melting point is 336 to 346 °C (dec.). The IC50 with HUVEC monolayers was 0.501 to 126 nM.

Turning to `COc1ccc(-c2nnc3c4ccccc4c(Nc4cccc(NS(=O)(=O)N5CCOCC5)c4)nn23)cc1` [Compound 34, Morpholine-4-sulfonic acid {3-[3-(4-methoxy-phenyl)-[1,2,4]triazolo[3,4-a]phthalazin-6-ylamino]-phenyl}-amide], the melting point was 264 °C (dec.). Also, the IC50 with HUVEC monolayers was 0.501 to 126 nM.

Molecule `COc1ccc(-c2nnc3c4ccccc4c(Nc4ccc(S(=O)(=O)N5CCOCC5)cc4)nn23)cc1` [Compound 22, [3-(4-Methoxyphenyl)-[1,2,4]triazolo[3,4-a]phthalazin-6-yl]-[4-(morpholine-4-sulfonyl)-phenyl]-amine] registered a melting point of 330 °C. The IC50 with HUVEC monolayers is 0.501 to 126 nM.

Take `COc1ccc(-c2nnc3c4ccccc4c(Nc4cccc(NS(C)(=O)=O)c4)nn23)cc1` [Compound 19, N-{3-[3-(4-Methoxyphenyl)-[1,2,4]triazolo[3,4-a]phthalazin-6-ylamino]-phenyl}-methanesulfonamide]: the melting point was found to be 304.9 °C. Further, in the data set with HUVEC monolayers, the IC50 is 0.501 to 126 nM.

On to `COc1ccc(-c2nnc3c4ccccc4c(Nc4cccc(NS(=O)(=O)Cc5ccccc5)c4)nn23)cc1` [Compound 15, N-{3-[3-(4-Methoxy-phenyl)-[1,2,4]triazolo[3,4-a]phthalazin-6-ylamino]-phenyl}-1-phenyl-methanesulfonamide], for which the melting point is 289 to 292 °C. Also, in the data set with HUVEC monolayers, the IC50 was 0.501 to 126 nM.

Regarding `CN(C)c1ccccc1-c1nnc2c3ccccc3c(Nc3cccc(NS(=O)(=O)N(C)C)c3)nn12` [Compound 26], the melting point lay in the range of 235 to 239 °C. The IC50 in the data set on HUVEC monolayers is 0.501 to 126 nM.

The molecule `COc1ccc(-c2nnc3c4ccccc4c(Nc4cccc(NS(=O)(=O)c5cccs5)c4)nn23)cc1` [Compound 17, Thiophene-2-sulfonic acid {3-[3-(4-methoxy-phenyl)-[1,2,4]triazolo[3,4-a]phthalazin-6-ylamino]-phenyl}-amide] yielded a melting point of 327 to 331 °C. In addition, in the data set on HUVEC monolayers, the IC50 is 0.501 to 126 nM.
